Laboratory results as given in patent publication US6531610B1 (Abbott Laboratories, priority 1989, dated 2003).
Counter-ions that a name gives are not always drawn. Like-named read-outs stand apart in the source and are kept apart here.

Experiments:
HIV-13B in MT4 cells = assay: Antiviral activity: inhibition of the cytopathic effect of HIV in MT4 cells; format: cell-based, HIV-1; conditions: Human immunodeficiency virus 1, MT4
in vitro = format: cell-based; conditions: human
Excerpt: The anti-HIV activity of the compounds of the invention can be determined in MT4 cells according to the procedure of Kempf, et. al. (Antimicrob. Agents Chemother. 1991, 35, 2209).

HIV-1 protease = HIV-1 protease (Human immunodeficiency virus type 1 group M subtype B, UniProt P04585); assay: Fluorogenic assay for screening inhibitors of HIV protease; format: biochemical; conditions: Inhibitor Concentration 0.5 nanomolar, fluorogenic substrate, pH 4.5, read-out: Percent Inhibition
Procedure: The inhibitory potency of the compounds of the invention can be determined by the following method.
A compound of the invention is dissolved in DMSO and a small aliquot further diluted with DMSO to 100 times the final concentration desired for testing. The reaction is carried out in a 6×50 mm tube in a total volume of 300 microliters. The final concentrations of the components in the reaction buffer are: 125 mM sodium acetate, 1 M sodium chloride, 5 mM dithiothreitol, 0.5 mg/ml bovine serum albumin, 1.3 μM fluorogenic substrate, 2% (v/v) dimethylsulfoxide, pH 4.5. After addition of inhibitor, the reaction mixture is placed in the fluorometer cell holder and incubated at […] for several minutes. The reaction is initiated by the addition of a small aliquot of cold HIV protease. The fluorescence intensity (excitation 340 nm, emission 490 nm) is recorded as a function of time. The reaction rate is determined for the first six to eight minutes. The observed rate is directly proportional to the moles of substrate cleaved per unit time. The percent inhibition is 100×(1-(rate in presence of inhibitor)/(rate in absence of inhibitor)).
Fluorogenic substrate: Dabcyl-[…]EDANS wherein DABCYL=4-(4-dimethylamino-phenyl)azobenzoic acid and EDANS=5-((2-aminoethyl)amino)-naphthalene-1-sulfonic acid.

[1] = concentration at which 50% of the cells remain viable, MT4 cells, read-out: LC50 (the source's name)

SMILES | IC50 (HIV-13B in MT4 cells; read-out: IC50) [nM] | CC50 (in vitro) [nM] | inhibition at 0.0005 µM (HIV-1 protease) [%] | IC50 (HIV-13B in MT4 cells) [nM] | CC50 (in vitro; [1]) [nM]
CC(C)c1nc(CN(C)C(=O)N[C@H](C(=O)N[C@H](Cc2cncs2)C[C@H](O)[C@H](Cc2ccccc2)NC(=O)OCc2cncs2)C(C)C)cs1 [Example 8, (2S,3S,5S)-5-(N-(N-((N-Methyl-N-((2-isopropyl-4-thiazolyl)methyl)amino)carbonyl)valinyl)amino)-1-phenyl-2-(N-((5-thiazolyl)methoxycarbonyl)amino)-6-(5-thiazolyl)-3-hydroxyhexane] | 57 to 95 | 97000 |  |  | 
CC(C)[C@H](NC(=O)OCc1csc(N(C)C)n1)C(=O)N[C@@H](Cc1ccccc1)C[C@H](O)[C@H](Cc1ccccc1)NC(=O)OCc1cncs1 [Example 9, (2S,3S,5S)-5-(N-(N-((2-(N,N-Dimethylamino)-4-thiazolyl)methoxycarbonyl)valinyl)amino)-2-(N-((5-thiazolyl)methoxycarbonyl)amino)-1,6-diphenyl-3-hydroxyhexane] | 80 to 100 | 62000 |  |  | 
CC(C)[C@H](NC(=O)OCc1csc(N2CCCC2)n1)C(=O)N[C@@H](Cc1ccccc1)C[C@H](O)[C@H](Cc1ccccc1)NC(=O)OCc1cncs1 [Example 13, (2S,3S,5S)-5-(N-(N-((2-(1-Pyrrolidinyl)-4-thiazolyl)methoxycarbonyl)valinyl)amino)-2-(N-((5-thiazolyl)methoxycarbonyl)amino)-1,6-diphenyl-3-hydroxyhexane] | 56 to 88 | 56000 | 46 |  | 
CC(C)[C@H](NC(=O)OCc1csc(N2CCCC2)n1)C(=O)N[C@@H](Cc1ccccc1)[C@@H](O)C[C@H](Cc1ccccc1)NC(=O)OCc1cncs1 [Example 14, (2S,3S,5S)-2-(N-(N-((2-(1-Pyrrolidinyl)-4-thiazolyl)-methoxycarbonyl)valinyl)amino)-5-(N-((5-thiazolyl)-methoxycarbonyl)amino)-1,6-diphenyl-3-hydroxyhexane] | 140 to 220 | > 100000 |  |  | 
CC(C)c1nc(CN(C)C(=O)N[C@H](C(=O)N[C@@H](Cc2ccccc2)C[C@H](O)[C@H](Cc2ccccc2)NC(=O)OCc2cnc(C(C)C)s2)C(C)C)cs1 [Example 45, (2S,3S,5S)-5-(N-(N-((N-Methyl-N-((2-isopropyl-4-thiazolyl)methyl)amino)carbonyl)valinyl)amino)-2-(N-(((2-isopropyl)-5-thiazolyl)methoxycarbonyl)amino)-1,6-diphenyl-3-hydroxyhexane] | 36 to 40 |  | 50 |  | 
CC(C)[C@H](NC(=O)N(C)Cc1csc(N2CCCC2)n1)C(=O)N[C@@H](Cc1ccccc1)C[C@H](O)[C@H](Cc1ccccc1)NC(=O)OCc1cncs1 [Example 46, (2S,3S,5S)-5-(N-(N-((N-Methyl-N-((2-(1-pyrrolidinyl)-4-thiazolyl)methyl)amino)carbonyl)valinyl)amino)-2-(N-((5-thiazolyl)methoxycarbonyl)amino)-1,6-diphenyl-3-hydroxyhexane] | 100 to 170 |  | 46 |  | 
CC(C)c1nc(CCOC(=O)N[C@H](C(=O)N[C@@H](Cc2ccccc2)[C@@H](O)C[C@H](Cc2ccccc2)NC(=O)OCc2cncs2)C(C)C)cs1 [Example 48, (2S,3S,5S)-2-(N-(N-((2-(2-Isopropyl-4-thiazolyl)ethoxy)carbonyl)valinyl)amino)-5-(N-((5-thiazolyl)methoxycarbonyl)amino)-1,6-diphenyl-3-hydroxyhexane] | 90 to 110 | > 100000 |  |  | 
CC(C)[C@H](NC(=O)N(C)Cc1csc(N2CCCC2)n1)C(=O)N[C@@H](Cc1ccccc1)C[C@H](O)[C@H](Cc1ccccc1)NC(=O)OCc1ccno1 [Example 49, (2S,3S,5S)-5-(N-(N-((N-Methyl-N-((2-(1-pyrrolidinyl)-4-thiazolyl)methyl)amino)carbonyl)valinyl)amino)-2-(N-((5-isoxazolyl)methoxycarbonyl)amino)-1,6-diphenyl-3-hydroxyhexane] | 81 to 130 | 38000 |  |  | 
CCCN(Cc1csc(C(C)C)n1)C(=O)N[C@@H](C)C(=O)N[C@@H](Cc1ccccc1)C[C@H](O)[C@H](Cc1ccccc1)NC(=O)OCc1cncs1 [Example 54] |  |  |  | 110 to 170 | 
CC(C)CN(Cc1csc(C(C)C)n1)C(=O)N[C@@H](C)C(=O)N[C@@H](Cc1ccccc1)C[C@H](O)[C@H](Cc1ccccc1)NC(=O)OCc1cncs1 [Example 55] |  |  |  | 140 to 220 | 
CC(C)c1nc(CN(C)C(=O)N[C@@H](C)C(=O)N[C@@H](Cc2ccccc2)C[C@H](O)[C@H](Cc2ccccc2)NC(=O)OCc2cncs2)co1 [Example 56, (2S,3S,5S)-5-(N-(N-((N-Methyl-N-((2-isopropyl-4-oxazolyl)methyl)amino)carbonyl)-L-alaninyl)amino)-2-(N-((5-thiazolyl)methoxycarbonyl)amino)-1,6-diphenyl-3-hydroxyhexane] | 50 to 67 |  |  |  | 
CC(C)c1nc(CN(C)C(=O)N[C@@H](C)C(=O)N[C@@H](Cc2ccccc2)C[C@H](O)[C@H](Cc2ccccc2)NC(=O)OCc2ccno2)co1 [Example 57, (2S,3S,5S)-5-(N-(N-((N-Methyl-N-((2-isopropyl-4-oxazolyl)methyl)amino)carbonyl)-L-alaninyl)amino)-2-(N-((5-isoxazolyl)methoxycarbonyl)amino)-1,6-diphenyl-3-hydroxyhexane] | 35 to 48 |  |  |  | 
CC(C)[C@H](NC(=O)N(C)Cc1csc(C2CCCC2)n1)C(=O)N[C@@H](Cc1ccccc1)C[C@H](O)[C@H](Cc1ccccc1)NC(=O)OCc1cncs1 [Example 58, (2S,3S,5S)-5-(N-(N-((N-Methyl-N-((2-cyclopentyl-4-thiazolyl)methyl)amino)carbonyl)valinyl)amino)-2-(N-((5-thiazolyl)methoxycarbonyl)amino)-1,6-diphenyl-3-hydroxyhexane] | 30 to 46 | 18000 | 49 |  | 
CC(C)Cc1nc(CN(C)C(=O)N[C@H](C(=O)N[C@@H](Cc2ccccc2)C[C@H](O)[C@H](Cc2ccccc2)NC(=O)OCc2cncs2)C(C)C)cs1 [Example 59, (2S,3S,5S)-5-(N-(N-((N-Methyl-N-((2-isobutyl-4-thiazolyl)methyl)amino)carbonyl)valinyl)amino)-2-(N-((5-thiazolyl)methoxycarbonyl)amino)-1,6-diphenyl-3-hydroxyhexane] | 110 to 130 | 18000 | 39 |  | 
CCN(Cc1csc(C2CCCC2)n1)C(=O)N[C@@H](C)C(=O)N[C@@H](Cc1ccccc1)C[C@H](O)[C@H](Cc1ccccc1)NC(=O)OCc1cncs1 [Example 60] |  |  | 44 | 340 to 510 | 17000
CC(C)c1nc(CCN(C)C(=O)N[C@H](C(=O)N[C@@H](Cc2ccccc2)C[C@H](O)[C@H](Cc2ccccc2)NC(=O)OCc2cncs2)C(C)C)cs1 [Example 61, (2S,3S,5S)-5-(N-(N-((N-Methyl-N-(2-(2-isopropyl-4-thiazolyl)ethyl)amino)carbonyl)valinyl)amino)-2-(N-((5-thiazolyl)methoxycarbonyl)amino)-1,6-diphenyl-3-hydroxyhexane] | 150 to 220 |  |  |  | 
CC(C)c1nc(CN(NC(=O)OC(C)(C)C)C(=O)N[C@H](C(=O)N[C@@H](Cc2ccccc2)C[C@H](O)[C@H](Cc2ccccc2)NC(=O)OCc2cncs2)C(C)C)cs1 [Example 62, (2S,3S,5S)-5-(N-(N-((N-(tert-Butyloxycarbonylamino)-N-((2-isopropyl-4-thiazolyl)methyl)amino)carbonyl)valinyl)amino)-2-(N-((5-thiazolyl)methoxycarbonyl)amino)-1,6-diphenyl-3-hydroxyhexane] | 690 to 1000 | 17000 | 54 |  | 
CC(C)c1nc(CN(N)C(=O)N[C@H](C(=O)N[C@@H](Cc2ccccc2)C[C@H](O)[C@H](Cc2ccccc2)NC(=O)OCc2cncs2)C(C)C)cs1 [Example 63, (2S,3S,5S)-5-(N-(N-((N-(Amino)-N-((2-isopropyl-4-thiazolyl)methyl)amino)carbonyl)valinyl)amino)-2-(N-((5-thiazolyl)methoxycarbonyl)amino)-1,6-diphenyl-3-hydroxyhexane Hydrochloride] |  |  | 61 | 130 to 180 | 45000
CC(C)c1nc(COC(=O)N[C@H](C(=O)N[C@H](Cc2cncs2)C[C@H](O)[C@H](Cc2ccccc2)NC(=O)OCc2cncs2)C(C)C)cs1 [Example 64, (2S,3S,5S)-5-(N-(N-((2-Isopropyl-4-thiazolyl)methoxycarbonyl)valinyl)amino)-1-phenyl-2-(N-((5-thiazolyl)methoxycarbonyl)amino)-6-(5-thiazolyl)-3-hydroxyhexane] | 100 to 130 | > 100000 |  |  | 
CC(C)c1nc(COC(=O)N[C@H](C(=O)N[C@@H](Cc2ccccc2)[C@@H](O)C[C@@H](Cc2cncs2)NC(=O)OCc2cncs2)C(C)C)cs1 [Example 65, (2S,3S,5S)-2-(N-(N-((2-Isopropyl-4-thiazolyl)methoxycarbonyl)valinyl)amino)-1-phenyl-5-(N-((5-thiazolyl)methoxycarbonyl)amino)-6-(5-thiazolyl)-3-hydroxyhexane] | 120 to 200 | > 100000 | 70 |  | 
